Measured values as given in patent publication US8247211B2, “Glycopeptide antibiotics” (American Cyanamid Company, priority 2001, dated 2012).

Legend:
Assay in all cases: In vitro antibacterial evaluation: minimum inhibitory concentration (MIC), broth dilution method
Format in all cases: cell-based
Enterococcus sp. = conditions: broth dilution, 18 hours at 35° C.
Procedure, shortened: (§1)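 NCCLS M7-A2 broth dilution with Mueller-Hinton II, testing 64-0.06 μg/mL antibiotic against 5×10^5 CFU/mL inocula. Test strains include recent methicillin-, penicillin- or vancomycin-resistant clinical isolates. MIC is the lowest concentration preventing growth.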

Staphylococcus sp. = conditions: broth dilution, 18 hours at 35° C.; for MIC Staphylococcus aureus-SMITH (GC 4543): strain SMITH GC 4543
Procedure, shortened: as §1

Streptococcus sp. = conditions: broth dilution, 18 hours at 35° C.
Procedure, shortened: as §1

Escherichia coli = conditions: broth dilution, 18 hours at 35° C.
[1] = Enterococcus faecalis (ATCC 29212)
[2] = Enterococcus faecalis (GC 2242)
[3] = Enterococcus faecalis (GC 2691)
[4] = Enterococcus faecalis (GC 3059)
[5] = Enterococcus faecalis (GC 4552)
[6] = Enterococcus faecalis (GC 4553)
[7] = Enterococcus faecalis (GC 4554)
[8] = Enterococcus faecalis (GC 6189)
[9] = Streptococcus agalactiae (GC 4564)
[10] = Streptococcus pneumoniae (ATCC 6301)
[11] = Streptococcus pneumoniae (GC 1894)
[12] = Streptococcus pneumoniae (GC 4565)
[13] = Streptococcus pyogenes (GC 4563)

CC(c1ccccc1)C1NC(=O)CNC(=O)C(CO)NC(=O)C(C(O)C2CNC(=N)N2C2OC(CO)C(O)C(O)C2O)NC(=O)C(C(O)C2CNC(=N)N2)NC(=O)C(Cc2ccc(O)c(NC(=O)c3ccccc3)c2)NC1=O (stereo not drawn) [Example 17, Cyclo[glycyl-β-methylphenylalanyl-3-(benzamido)tyrosyl-3-(2-iminoimidazolidin-4-yl)seryl-3-(3-hexopyranosyl-2-iminoimidazolidin-4-yl)serylseryl]]
16 µg/mL: MIC Escherichia coli (GC 4560) (Escherichia coli)
64 µg/mL: MIC Enterococcus avium (GC 4558) (Enterococcus sp.; Enterococcus avium (GC 4558)) | MIC Enterococcus faecium (GC 4556) (Enterococcus sp.; Enterococcus faecium (GC 4556)) | MIC Enterococcus faecium (GC 4557) (Enterococcus sp.; Enterococcus faecium (GC 4557)) | MIC Enterococcus avium (GC 4558) (Enterococcus sp.) | MIC Enterococcus faecium (GC 4556) (Enterococcus sp.) | MIC Enterococcus faecium (GC 4557) (Enterococcus sp.) | MIC Streptococcus pneumoniae (GC 1894) (Streptococcus sp.; [11]) | MIC Streptococcus pneumoniae (GC 1894) (Streptococcus sp.) | MIC Escherichia coli (ATCC 25922) (Escherichia coli)
32 µg/mL: MIC Escherichia coli (GC 4559) (Escherichia coli)
>64 µg/mL: MIC Enterococcus faecalis (ATCC 29212) (Enterococcus sp.; [1]) | MIC Enterococcus faecalis (GC 2242) (Enterococcus sp.; [2]) | MIC Enterococcus faecalis (GC 2691) (Enterococcus sp.; [3]) | MIC Enterococcus faecalis (GC 3059) (Enterococcus sp.; [4]) | MIC Enterococcus faecalis (GC 4552) (Enterococcus sp.; [5]) | MIC Enterococcus faecalis (GC 4553) (Enterococcus sp.; [6]) | MIC Enterococcus faecalis (GC 4554) (Enterococcus sp.; [7]) | MIC Enterococcus faecalis (GC 6189) (Enterococcus sp.; [8]) | MIC Enterococcus faecium (GC 2243) (Enterococcus sp.; Enterococcus faecium (GC 2243)) | MIC Enterococcus faecalis (ATCC 29212) (Enterococcus sp.) | MIC Enterococcus faecalis (GC 2242) (Enterococcus sp.) | MIC Enterococcus faecalis (GC 2691) (Enterococcus sp.) | MIC Enterococcus faecalis (GC 3059) (Enterococcus sp.) | MIC Enterococcus faecalis (GC 4552) (Enterococcus sp.) | MIC Enterococcus faecalis (GC 4553) (Enterococcus sp.) | MIC Enterococcus faecalis (GC 4554) (Enterococcus sp.) | MIC Enterococcus faecalis (GC 6189) (Enterococcus sp.) | MIC Enterococcus faecium (GC 2243) (Enterococcus sp.) | MIC Staphylococcus aureus-SMITH (GC 4543) (Staphylococcus sp.) | MIC Streptococcus agalactiae (GC 4564) (Streptococcus sp.; [9]) | MIC Streptococcus pneumoniae (ATCC 6301) (Streptococcus sp.; [10]) | MIC Streptococcus pneumoniae (GC 4565) (Streptococcus sp.; [12]) | MIC Streptococcus pyogenes (GC 4563) (Streptococcus sp.; [13]) | MIC Streptococcus agalactiae (GC 4564) (Streptococcus sp.) | MIC Streptococcus pneumoniae (ATCC 6301) (Streptococcus sp.) | MIC Streptococcus pneumoniae (GC 4565) (Streptococcus sp.) | MIC Streptococcus pyogenes (GC 4563) (Streptococcus sp.)

CCCCCCC(=O)Nc1cc(CC2NC(=O)C(C(C)c3ccccc3)NC(=O)CNC(=O)C(CO)NC(=O)C(C(O)C3CNC(=N)N3C3OC(CO)C(O)C(O)C3O)NC(=O)C(C(O)C3CNC(=N)N3)NC2=O)ccc1O (stereo not drawn) [Example 16, Cyclo[glycyl-β-methylphenylalanyl-3-(heptanamido)tyrosyl-3-(2-iminoimidazolidin-4-yl)seryl-3-(3-hexopyranosyl-2-iminoimidazolidin-4-yl)serylseryl]]
32 µg/mL: MIC Escherichia coli (ATCC 25922) (Escherichia coli) | MIC Escherichia coli (GC 4559) (Escherichia coli)
16 µg/mL: MIC Enterococcus faecium (GC 4557) (Enterococcus sp.; Enterococcus faecium (GC 4557)) | MIC Enterococcus faecium (GC 4557) (Enterococcus sp.) | MIC Streptococcus pyogenes (GC 4563) (Streptococcus sp.; [13]) | MIC Streptococcus pyogenes (GC 4563) (Streptococcus sp.)
64 µg/mL: MIC Enterococcus faecalis (GC 4553) (Enterococcus sp.; [6]) | MIC Enterococcus faecalis (GC 4553) (Enterococcus sp.) | MIC Staphylococcus aureus-SMITH (GC 4543) (Staphylococcus sp.) | MIC Streptococcus agalactiae (GC 4564) (Streptococcus sp.; [9]) | MIC Streptococcus pneumoniae (GC 1894) (Streptococcus sp.; [11]) | MIC Streptococcus agalactiae (GC 4564) (Streptococcus sp.) | MIC Streptococcus pneumoniae (GC 1894) (Streptococcus sp.)
8 µg/mL: MIC Escherichia coli (GC 4560) (Escherichia coli)

CC(c1ccccc1)C1NC(=O)CNC(=O)C(CO)NC(=O)C(CC2CNC(=N)N2C2OC(CO)C(O)C(O)C2O)NC(=O)C(CC2CNC(=N)N2)NC(=O)C(Cc2ccc3oc(-c4ccc5c(c4)Cc4ccccc4-5)nc3c2)NC1=O (stereo not drawn) [Example 42, Cyclo[3-[2-(9H-fluoren-2-yl)-1,3-benzoxazol-5-yl]alanyl-3-(2-iminoimidazolidin-4-yl)alanyl-3-(3-hexopyranosyl-2-iminoimidazolidin-4-yl)alanylserylglycyl-β-methylphenylalanyl]]
8 µg/mL: MIC Enterococcus faecalis (ATCC 29212) (Enterococcus sp.; [1]) | MIC Enterococcus faecalis (GC 2242) (Enterococcus sp.; [2]) | MIC Enterococcus faecalis (GC 2691) (Enterococcus sp.; [3]) | MIC Enterococcus faecalis (GC 4552) (Enterococcus sp.; [5]) | MIC Enterococcus faecalis (GC 4553) (Enterococcus sp.; [6]) | MIC Enterococcus faecalis (GC 4554) (Enterococcus sp.; [7]) | MIC Enterococcus faecalis (GC 6189) (Enterococcus sp.; [8]) | MIC Enterococcus faecalis (ATCC 29212) (Enterococcus sp.) | MIC Enterococcus faecalis (GC 2242) (Enterococcus sp.) | MIC Enterococcus faecalis (GC 2691) (Enterococcus sp.) | MIC Enterococcus faecalis (GC 4552) (Enterococcus sp.) | MIC Enterococcus faecalis (GC 4553) (Enterococcus sp.) | MIC Enterococcus faecalis (GC 4554) (Enterococcus sp.) | MIC Enterococcus faecalis (GC 6189) (Enterococcus sp.) | MIC Streptococcus agalactiae (GC 4564) (Streptococcus sp.; [9]) | MIC Streptococcus pneumoniae (ATCC 6301) (Streptococcus sp.; [10]) | MIC Streptococcus agalactiae (GC 4564) (Streptococcus sp.) | MIC Streptococcus pneumoniae (ATCC 6301) (Streptococcus sp.)
2 µg/mL: MIC Enterococcus faecium (GC 4557) (Enterococcus sp.; Enterococcus faecium (GC 4557)) | MIC Enterococcus faecium (GC 4557) (Enterococcus sp.) | MIC Coagulase Negative Staphylococcus (GC 4547) (Staphylococcus sp.) | MIC Staphylococcus aureus SMITH (GC 4543) (Staphylococcus sp.) | MIC Staphylococcus haemolyticus (GC 4546) (Staphylococcus sp.) | MIC Staphylococcus aureus-SMITH (GC 4543) (Staphylococcus sp.)
16 µg/mL: MIC Enterococcus faecalis (GC 3059) (Enterococcus sp.; [4]) | MIC Enterococcus faecium (GC 4556) (Enterococcus sp.; Enterococcus faecium (GC 4556)) | MIC Enterococcus faecalis (GC 3059) (Enterococcus sp.) | MIC Enterococcus faecium (GC 4556) (Enterococcus sp.) | MIC Streptococcus pneumoniae (GC 1894) (Streptococcus sp.; [11]) | MIC Streptococcus pneumoniae (GC 4565) (Streptococcus sp.; [12]) | MIC Streptococcus pneumoniae (GC 1894) (Streptococcus sp.) | MIC Streptococcus pneumoniae (GC 4565) (Streptococcus sp.)
1 µg/mL: MIC Coagulase Negative Staphylococcus (GC 4548) (Staphylococcus sp.) | MIC Coagulase Negative Staphylococcus (GC 4549) (Staphylococcus sp.) | MIC Coagulase Negative Staphylococcus (GC 6257) (Staphylococcus sp.) | MIC Escherichia coli (GC 4560) (Escherichia coli)
4 µg/mL: MIC Enterococcus avium (GC 4558) (Enterococcus sp.; Enterococcus avium (GC 4558)) | MIC Enterococcus faecium (GC 2243) (Enterococcus sp.; Enterococcus faecium (GC 2243)) | MIC Enterococcus avium (GC 4558) (Enterococcus sp.) | MIC Enterococcus faecium (GC 2243) (Enterococcus sp.) | MIC Coagulase Negative Staphylococcus (GC 4551) (Staphylococcus sp.) | MIC Streptococcus pyogenes (GC 4563) (Streptococcus sp.; [13]) | MIC Streptococcus pyogenes (GC 4563) (Streptococcus sp.)
32 µg/mL: MIC Escherichia coli (ATCC 25922) (Escherichia coli) | MIC Escherichia coli (GC 4559) (Escherichia coli)
